Experiments:
H1975 NSCLC cells [1] = assay: growth inhibition of H1975 NSCLC cells cultured alone under conventional static culture conditions; assay type: cell-based; settings: Homo sapiens, NCI-H1975, read-out: half-maximal inhibition
H1975 NSCLC cells [2] = assay: NSCLC cancer cell growth in microfluidic device (orthotopic lung model) with or without breathing motions; assay type: cell-based, human; settings: H1975 NSCLC cells cultured within the microfluidic devices
Description: Primary human lung microvascular endothelial cells were plated the same way as discussed above, except that these cells were plated first with endothelial growth medium. The GFP-labeled NSCLC tumor cells and primary alveolar epithelial cells were then plated using the same method as described above. The following day, the upper microchannel was perfused with epithelial growth medium containing 1 μM dexamethasone and flushed manually for 2-3 days, after which the medium in the upper microchannel was removed to create an air-liquid interface, while the lower microchannel was continuously perfused with air-liquid interface medium at 60 μL/hr. […]
Analysis of cancer cell growth and responses of cancer cells can be monitored visually through the microfluidic device. As discussed above, cancer cell growth can be monitored non-invasively using fluorescence microscopy, such as with a Zeiss TIRF/LSM 710 confocal microscopy and Hamamatsu ImagEM-1K BackThinned EMCCD camera. The number of GFP-labeled cancer cells can be estimated using fluorescence microscopy based on a standard curve generated experimentally that correlates cell density to GFP fluorescence intensity. […]

c-Met = c-Met expression and phosphorylation in NSCLC cells under cyclic mechanical strain; assay type: cell-based, human
Description: Further, many patients with the EGFR […]/T790M mutation who develop resistance to 3rd generation TKIs overexpress the tyrosine protein kinase c-Met, and c-MET overexpression has been implicated as a mechanism of resistance to TKI therapy in NSCLC patients. […] Thus, mechanical breathing motions also may suppress NSCLC cell response to TKI therapy by altering this signaling pathway.

Structure (SMILES)	IC50 (H1975 NSCLC cells [1])	response of NSCLC cells to TKIs (H1975 NSCLC cells [2])	effect of increasing dose on expression and phosphorylation of c-Met (c-Met)
C#Cc1cccc(Nc2ncnc3cc(OCCOC)c(OCCOC)cc23)c1 [erlotinib]	~100 nM	responded	
C=CC(=O)Nc1cccc(Nc2nc(Nc3ccc(N4CCN(C(C)=O)CC4)cc3OC)ncc2C(F)(F)F)c1 [rociletinib]	> 1000 nM		no significant effect

— patent US20200270557A1, “HUMAN IN VITRO ORTHOTOPIC AND METASTATIC MODELS OF CANCER” (PRESIDENT AND FELLOWS OF HARVARD COLLEGE, priority 2017, published 2020)
